Our source for the IC50 values is ChEMBL document CHEMBL1157293, “Sylviside, a diterpene glucoside derivative from Gnaphalium sylvaticum” (J Nat Prod, 2006).

The structures appear in SMILES notation.

In assay [1] the test system is HeLa. Briefly: Cytotoxicity against MDR1-G185 overexpressing human HeLa cells by MTT assay. Type of assay: functional, cell-based.
Assay [2] relates to HeLa. Briefly: Cytotoxicity against wild type human HeLa cells by MTT assay. The class given is functional, cell-based.

For the molecule `C=C1[C@@H]2CC[C@H]3[C@]4(C)C[C@H](O[C@@H]5O[C@H](CO)[C@@H](O)[C@H](O)[C@H]5OC(=O)/C(C)=C\C)CC(C(=O)O)(C(=O)O)[C@H]4CC[C@]3(C2)[C@H]1O` [SYLVISIDE], the IC50 in the assay on HeLa [1] stood at 1700 µM; in the assay on HeLa [2], 325 µM.
